{"source": "patent US12264156B2", "about": "“Compounds and pharmaceutical compositions thereof for the treatment of diseases” (GALAPAGOS NV, priority 2018, dated 2025)", "key": {"[1]": {"molecular_target": "T1, SIK2 (Homo sapiens, UniProt Q9H0K1)", "T1 construct": "purchased ThermoFisher Scientific PV4792", "T1 sequence (Q9H0K1 whole entry)": "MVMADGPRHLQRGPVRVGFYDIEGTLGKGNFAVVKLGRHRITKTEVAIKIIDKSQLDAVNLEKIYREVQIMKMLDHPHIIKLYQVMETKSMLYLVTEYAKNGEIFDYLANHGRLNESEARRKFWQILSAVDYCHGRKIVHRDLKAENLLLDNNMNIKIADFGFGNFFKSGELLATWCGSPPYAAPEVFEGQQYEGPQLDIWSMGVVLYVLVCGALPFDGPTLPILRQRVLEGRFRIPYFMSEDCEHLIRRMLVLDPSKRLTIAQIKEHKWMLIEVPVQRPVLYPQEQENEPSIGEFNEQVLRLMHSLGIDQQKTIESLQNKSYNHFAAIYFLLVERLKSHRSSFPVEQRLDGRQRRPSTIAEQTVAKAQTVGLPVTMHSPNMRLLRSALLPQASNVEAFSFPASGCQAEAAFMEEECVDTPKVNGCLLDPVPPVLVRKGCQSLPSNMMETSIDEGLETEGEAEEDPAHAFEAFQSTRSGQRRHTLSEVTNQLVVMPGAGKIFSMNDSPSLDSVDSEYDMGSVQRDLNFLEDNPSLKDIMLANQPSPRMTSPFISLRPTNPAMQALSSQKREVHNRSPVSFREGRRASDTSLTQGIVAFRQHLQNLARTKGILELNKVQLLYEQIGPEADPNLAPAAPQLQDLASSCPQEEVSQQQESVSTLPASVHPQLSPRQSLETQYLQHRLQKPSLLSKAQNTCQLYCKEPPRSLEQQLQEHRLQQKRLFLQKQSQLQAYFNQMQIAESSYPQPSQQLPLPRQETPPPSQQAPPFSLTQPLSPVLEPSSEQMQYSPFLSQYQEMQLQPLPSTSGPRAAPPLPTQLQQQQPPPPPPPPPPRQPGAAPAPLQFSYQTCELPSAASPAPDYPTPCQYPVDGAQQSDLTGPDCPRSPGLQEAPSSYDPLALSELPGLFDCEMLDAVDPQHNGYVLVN", "assay": "ADP-Glo kinase assay, SIK2", "assay_type": "biochemical", "settings": "ADP-Glo SIK kinase assay", "method_in_brief": "(§1)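 Wells with 1% DMSO or 10 μM staurosporine (final) define the control window. The kinase reaction with substrate and ATP runs 120 min at RT, followed by ADP-Glo detection: ATP depletion (40 min) and ADP-derived luminescence (30 min).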"}, "[2]": {"test_system": "IL-10", "assay": "Mouse LPS-induced endotoxic shock, plasma IL-10", "assay_type": "in vivo", "design": "key: +: statistically significant induction of IL-10; −: no effect on the level of IL-10", "settings": "3 mg/kg, p.o.; plasma 90 min after LPS challenge", "experimental": "(§2) Injection of lipopolysaccharide (LPS) induces a rapid release of soluble tumour necrosis factor (TNFα) into the periphery. This model was used to assess prospective blockers of TNFα release in vivo.\n(§3) Lipopolysaccharide (LPS) from Escherichia Coli serotype O111:B4 was obtained from Sigma Aldrich (Cat #L2630).\n(§4) BALB/cAnNCrl mice (female, 18-20 g body weight) were obtained from Charles River (Calco, Italy). Mice were kept on a 12 h light/dark cycle. Temperature was maintained at 22±2° C., food and water were provided ad libitum.\n(§5) Mice were dosed once by oral (p.o.) or subcutaneous (sc) route with the tested compound in the appropriate vehicle.\n(§6) At the Tmax of compound, 100 μg of LPS (in H2O) was injected intraperitoneally to mice. A control group was included which comprises administering the vehicle without an LPS challenge.\n(§7) Mice were sacrificed 90 min after LPS challenge and blood was collected in heparinised tubes. Plasma was obtained by centrifugation for 15 min, 2000×g at +4° C. and frozen at −80° C. before cytokine analysis.\n(§8) TNFα and IL-10 were quantified in plasma by AlphaLISA detection kits obtained from PerkinElmer (Massachusetts, USA), Cat4 AL505C and AL502C, respectively.\n(§9) Statistics were performed with Prism 5.03 software (GraphPad) using an ANOVA analysis of variance with Dunnett's post-hoc test versus LPS group.\n(§10) Active compounds were defined as showing a statistically significant decrease in TNFα with or without a statistically significant induction of IL-10"}, "[3]": {"test_system": "TNFα", "assay": "Mouse LPS-induced endotoxic shock, plasma TNFα", "assay_type": "in vivo", "design": "key: +: statistically significant inhibition of TNFα; −: no effect on the level of TNFα", "settings": "3 mg/kg, p.o.; plasma 90 min after LPS challenge", "experimental": "as §2, §3, §4, §5, §6, §7, §8, §9, §10"}, "[4]": {"molecular_target": "T2, SIK3 (Homo sapiens, UniProt Q9Y2K2)", "T2 construct": "purchased SignalChem S12-11G-100", "T2 sequence (Q9Y2K2 whole entry)": "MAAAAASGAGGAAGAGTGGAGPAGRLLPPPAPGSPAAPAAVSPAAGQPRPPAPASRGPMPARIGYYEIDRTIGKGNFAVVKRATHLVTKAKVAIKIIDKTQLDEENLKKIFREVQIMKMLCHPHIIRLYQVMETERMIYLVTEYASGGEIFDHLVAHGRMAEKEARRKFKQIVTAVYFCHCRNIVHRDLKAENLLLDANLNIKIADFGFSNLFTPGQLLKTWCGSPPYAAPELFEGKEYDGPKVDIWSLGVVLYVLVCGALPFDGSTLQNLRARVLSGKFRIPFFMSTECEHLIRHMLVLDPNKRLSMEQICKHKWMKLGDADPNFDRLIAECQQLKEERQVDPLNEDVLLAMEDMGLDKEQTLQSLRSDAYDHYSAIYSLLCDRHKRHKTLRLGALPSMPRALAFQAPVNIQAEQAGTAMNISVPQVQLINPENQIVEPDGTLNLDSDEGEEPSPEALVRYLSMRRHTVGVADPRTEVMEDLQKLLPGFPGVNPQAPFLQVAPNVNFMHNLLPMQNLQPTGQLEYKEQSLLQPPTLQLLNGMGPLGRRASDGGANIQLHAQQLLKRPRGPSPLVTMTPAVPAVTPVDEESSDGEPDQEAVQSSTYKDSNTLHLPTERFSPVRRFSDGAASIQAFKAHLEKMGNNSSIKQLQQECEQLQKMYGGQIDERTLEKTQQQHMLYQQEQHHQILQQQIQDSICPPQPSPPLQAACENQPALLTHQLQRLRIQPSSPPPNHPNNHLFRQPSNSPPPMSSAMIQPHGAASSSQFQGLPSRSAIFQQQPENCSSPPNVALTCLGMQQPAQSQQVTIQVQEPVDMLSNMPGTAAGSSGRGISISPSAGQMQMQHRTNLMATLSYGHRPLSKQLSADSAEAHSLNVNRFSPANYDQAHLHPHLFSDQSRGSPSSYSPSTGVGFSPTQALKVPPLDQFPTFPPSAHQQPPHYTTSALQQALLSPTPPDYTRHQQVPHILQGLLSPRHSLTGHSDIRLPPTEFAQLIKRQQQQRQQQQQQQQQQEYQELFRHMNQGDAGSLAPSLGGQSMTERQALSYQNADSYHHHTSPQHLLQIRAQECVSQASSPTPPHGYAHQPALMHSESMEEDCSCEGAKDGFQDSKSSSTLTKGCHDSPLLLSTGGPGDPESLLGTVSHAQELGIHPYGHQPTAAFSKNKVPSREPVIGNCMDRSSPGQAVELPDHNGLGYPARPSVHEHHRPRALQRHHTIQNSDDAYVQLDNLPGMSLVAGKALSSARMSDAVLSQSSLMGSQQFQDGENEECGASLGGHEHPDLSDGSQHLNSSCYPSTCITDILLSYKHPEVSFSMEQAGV", "assay": "ADP-Glo kinase assay, SIK3", "assay_type": "biochemical", "settings": "ADP-Glo SIK kinase assay", "method_in_brief": "as §1"}, "[5]": {"molecular_target": "T3, SIK1 (Homo sapiens, UniProt P57059)", "T3 construct": "purchased Carna Biosciences 02-131", "T3 sequence (P57059 whole entry)": "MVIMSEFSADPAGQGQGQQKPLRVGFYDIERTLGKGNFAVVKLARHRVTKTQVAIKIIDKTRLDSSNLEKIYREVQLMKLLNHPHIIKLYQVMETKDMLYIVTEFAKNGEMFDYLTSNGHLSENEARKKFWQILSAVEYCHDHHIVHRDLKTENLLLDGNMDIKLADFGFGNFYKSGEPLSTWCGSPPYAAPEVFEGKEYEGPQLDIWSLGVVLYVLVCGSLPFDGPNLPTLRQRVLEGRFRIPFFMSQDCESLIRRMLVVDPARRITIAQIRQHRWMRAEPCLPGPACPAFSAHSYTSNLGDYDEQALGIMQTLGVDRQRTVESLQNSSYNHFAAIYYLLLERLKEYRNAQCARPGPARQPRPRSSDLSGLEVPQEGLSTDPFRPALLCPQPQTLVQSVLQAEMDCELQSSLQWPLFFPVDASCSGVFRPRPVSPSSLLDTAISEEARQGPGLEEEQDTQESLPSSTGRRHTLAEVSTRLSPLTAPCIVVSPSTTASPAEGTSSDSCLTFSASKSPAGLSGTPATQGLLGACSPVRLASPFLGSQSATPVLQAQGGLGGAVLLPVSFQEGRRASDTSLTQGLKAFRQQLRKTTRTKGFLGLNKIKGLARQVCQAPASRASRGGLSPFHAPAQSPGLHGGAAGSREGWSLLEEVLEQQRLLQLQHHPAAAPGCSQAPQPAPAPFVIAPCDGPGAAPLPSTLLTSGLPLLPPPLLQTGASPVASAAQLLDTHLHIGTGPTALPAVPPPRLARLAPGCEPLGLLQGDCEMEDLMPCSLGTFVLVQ", "assay": "ADP-Glo kinase assay, SIK1", "assay_type": "biochemical", "settings": "ADP-Glo SIK kinase assay", "method_in_brief": "as §1"}, "[6]": {"test_system": "LPS-induced TNFα in monocyte-derived macrophages (MdM)", "assay": "MdM assay: LPS-triggered TNFα (ELISA)", "assay_type": "cell-based, human", "settings": "Homo sapiens, Macrophage, 20 h, monocyte-derived macrophages, LPS 200 ng/mL, supernatant after 20 h; read-out: TNFα EC50", "experimental": "This assay evaluates illustrative compounds of the invention for their inhibition of LPS-induced TNFα and LPS triggered IL-10 secretion in monocyte-derived macrophages.\nPBMCs are isolated from human blood samples (buffycoats). The buffy coat is aseptically transferred into a 50 mL Falcon tube, and diluted 1/2 in PBS. Falcon tubes are filled with 20 mL Lymphoprep™, on top of which 25 mL of the buffy coat is carefully added, tubes are centrifuged for 35 min at 400 g in temperature controlled centrifuge, without brake, at 25° C. PBMCs are aspirated from the white interface layer between sample and Lymphoprep™. PBMCs are washed five times in PBS.\nPBMCs are centrifuged at 300×g for 10 min and resuspended at a density of 1.0*10^7 cells/80 μL Miltenyi buffer (PBS, pH 7.4, 1% FBS, 2 mM EDTA).\nStarting from this point of the protocol all steps are performed on ice. 20 μL of CD14+ micro-beads are added per 1.0*10^7 cells, the tube is mixed and incubated for 15 min in the fridge at 4° C. Cell suspension volume is adjusted to total volume of 100 mL using Miltenyi buffer, mixed gently and subsequently centrifuged for 10 min at 300×g. Supernantant is discarded and cell pellet is resuspended in 12 mL of Miltenyi buffer.\nFour LS columns are placed in the MACS Separator (magnet) from Miltenyi Biotec, and are prewet by rinsing with 3 mL of MACS buffer per column. Three mL of cell suspension is added onto the column (max 1*10^8 of labelled cells/column), and columns are subsequently washed 3 times with 3 mL of Miltenyi buffer.\nThe columns are removed from the magnets, and 5 mL of Miltenyi buffer are added to the column to flush out the CD14+ fraction by pushing the plunger into the column. The flushed fractions are collected in a fresh 50 mL Falcon and volume is adjusted to 30 mL using Miltenyi buffer, cells are centrifuged for 10 min at 300×g. The obtained cell pellet is resuspended in 10 mL RPMI w/o FBS, and cell density is determined using a hematologic analyser (Sysmex XS-500i).\nOn day 10, MdMs are triggered and compound is added.\nA compound dilution plate is made in 100% DMSO by 3-fold dilution of 10 mM stock solution. An intermediate dilution plate (10× final concentration) is made by diluting the compound dilution plate 50-fold in RPMI medium.\nMedium is carefully removed from cell plates using multichannel pipette, and replaced by 80 μL fresh medium. 10 μL of the 10× final concentration compound is added to the cells and incubated for 1 hour at 37° C. before addition of trigger. No trigger conditions/trigger conditions are spiked with equal final DMSO concentrations of 0.2% DMSO. 10 μL of 10×LPS (final conc. 200 ng/mL) solution are added to all wells except for the ‘no trigger wells’ where 10 μL medium is added. Supernatant is collected after 2 h (IL-10 determination) and after 20 h (TNFα determination) of LPS triggering.\nThe plate is then washed once with PBST (PBS+0.05% Tween20) and once with PBS followed by the addition of 100 μL of blocking buffer (1% Bovine Serum Albumin (BSA)−5% Sucrose) and plates are sealed and incubated for at least 4 h at RT. After washing the plate once with PBST and once with PBS, 40 μL of standard or sample are added (TNFα standard curve is prepared using a 1/2 serial dilution starting from […]; dilutions are made in dilution buffer (PBS+1% BSA)). Plates are washed twice with PBST, and once with PBS, after which 35 μL of the detection antibody is added (final concentration 0.25 μg/mL diluted in dilution buffer) and plates are incubated for at least 2 h at RT. Plates are washed twice with PBST, and once with PBS, where after 35 μL of Strep-HRP conjugate (0.5 μg/mL final concentration diluted in dilution buffer) is added. Plates are incubated in the dark, at RT for at least 45 min but no longer than 1 hour. Plates are washed twice with PBST, and once with PBS."}}}
{"smiles": "COc1cc(-c2cnc3cc(OCCCN4CCCCC4)ccn23)cc(OC(F)F)c1C(=O)NC1CC1", "note": "[compound 16, N-cyclopropyl-2-(difluoromethoxy)-6-methoxy-4-[7-[3-(1-piperidyl)propoxy]imidazo [1,2-a]pyridin-3-yl]benzamide]", "values": [{"measurement": "IC50", "setting": "[1]", "result": "0.01 to 10", "unit": "nM"}, {"measurement": "IL-10", "setting": "[2]", "result": "−"}, {"measurement": "TNFα", "setting": "[3]", "result": "−"}, {"measurement": "IC50", "setting": "[4]", "result": "0.01 to 10", "unit": "nM"}, {"measurement": "IC50", "setting": "[5]", "result": "10 to 100", "unit": "nM"}, {"measurement": "EC50", "setting": "[6]", "result": "0.1 to 100", "unit": "nM"}]}
